Reference: patent US20230159445A1, “STAT INHIBITORY COMPOUNDS AND COMPOSITIONS” (JANPIX LIMITED, priority 2020, published 2023)

System: MV4-11 cells
Test: MV4-11 Cell Cytotoxicity Assay (CellTiter-Blue, 72 h)
Format: cell-based, human
Details: Homo sapiens, MV4-11; MV-4-11 cells
Protocol: In some embodiments, the potency of the STAT5 inhibitors are evaluated by an in vitro assay such as MV4-11 Cell Cytotoxicity Assay. […] 10,000 cells were plated per well in 96-well flat-bottom sterile culture plates with low-evaporation lids. After 24 h, inhibitors and a vehicle control (0.5% DMSO) were added and the cells were incubated for 72 h at 37° C. in 5% CO2. Inhibitors were examined in triplicate at a maximal concentration of 50 μM, followed by 1:2 dilutions in subsequent wells (25, 12.5, 6.25, 3.125, 1.5625, 0.78125, 0.390625, 0.195313 and 0.097656 μM). After 72 h, the wells were treated with CellTiter-Blue® (20 μL/well), and the plates were incubated using standard cell culture conditions for 1 hour. Fluorescence was measured at 560/590 nm.

`CC(C)(C)c1cc(CN(C(=O)CN(Cc2ccccn2)S(=O)(=O)c2c(F)c(F)c(F)c(F)c2F)c2ccc(C(=O)O)c(O)c2)cc(C2CC2)c1` [Compound 1008, 4-(N-(3-(tert-butyl)-5-cyclopropylbenzyl)-2-(N-(pyridin-2-ylmethyl)-(2,3,4,5,6-pentafluorophenyl)sulfonamido)acetamido)-2-hydroxybenzoic acid] gave an IC50 of 3.16 to 100 µM.

For `COc1c(CN(C(=O)CN(Cc2ccc(Cl)cc2)S(=O)(=O)c2c(F)c(F)c(F)c(F)c2F)c2ccc(C(=O)O)c(O)c2)cc(C(C)(C)C)cc1C1CC1` [Compound 1009, 4-(N-(5-(tert-butyl)-3-cyclopropyl-2-methoxybenzyl)-2-(N-(4-chlorobenzyl)-(2,3,4,5,6-pentafluorophenyl)sulfon-amido)acetamido)-2-hydroxybenzoic acid], the IC50 was 3.16 to 100 µM.

In the case of `O=C(O)c1ccc(N(Cc2cc(OCC3CC3)cc(OCC3CC3)c2)C(=O)CN(Cc2ccc(Cl)cc2)S(=O)(=O)c2c(F)c(F)c(F)c(F)c2F)cc1O` [Compound 1011, 4-(N-(3,5-bis(cyclopropylmethoxy)benzyl)-2-(N-(4-chlorobenzyl)-(2,3,4,5,6-pentafluorophenyl)sulfon-amido)acetamido)-2-hydroxybenzoic acid], the IC50 is reported as 3.16 to 100 µM.

Molecule `CC(C)(C)c1cc(CN(C(=O)CN(Cc2cccnc2)S(=O)(=O)c2c(F)c(F)c(F)c(F)c2F)c2ccc(C(=O)O)c(O)c2)cc(C2CC2)c1` [Compound 1013, 4-(N-(3-(tert-butyl)-5-cyclopropylbenzyl)-2-(N-(pyridin-3-ylmethyl)-(2,3,4,5,6-pentafluoro-phenyl)sulfonamido)acetamido)-2-hydroxybenzoic acid] has an IC50 of 3.16 to 100 µM.

With `CC(C)(C)c1cc(CN(C(=O)CN(Cc2ccc(Cl)cc2)S(=O)(=O)c2c(F)c(F)c(F)c(F)c2F)c2ccc(O)c(C(=O)O)c2)cc(C2CC2)c1` [Compound 1018, 5-(N-(3-(tert-butyl)-5-cyclopropylbenzyl)-2-(N-(4-chlorobenzyl)-(2,3,4,5,6-pentafluorophenyl)sulfon-amido)acetamido)-2-hydroxybenzoic acid] the IC50 was 3.16 to 100 µM.

In the case of `CC(C)(C)c1cc(CN(C(=O)CN(Cc2ccc(Cl)cc2)S(=O)(=O)c2c(F)c(F)c(F)c(F)c2F)c2ccc(C(C)(C)C(=O)O)cc2)cc(C2CC2)c1` [Compound 1019, 2-(4-(N-(3-(tert-butyl)-5-cyclopropylbenzyl)-2-(N-(4-chlorobenzyl)-(2,3,4,5,6-pentafluorophenyl)sulfon-amido)acetamido)phenyl)-2-methylpropanoic acid], the IC50 is reported as 1 to 3.16 µM.

`O=C(O)c1ccc(N(Cc2cc(O)cc(OCC3CC3)c2)C(=O)CN(Cc2ccc(Cl)cc2)S(=O)(=O)c2c(F)c(F)c(F)c(F)c2F)cc1O` [Compound 1020, 4-(2-(N-(4-chlorobenzyl)-(2,3,4,5,6-pentafluorophenyl)sulfon-amido)-N-(3-(cyclopropylmethoxy)-5-hydroxybenzyl)acetamido)-2-hydroxybenzoic acid] showed an IC50 of 3.16 to 100 µM.

`COc1ccc(CN(CC(=O)N(Cc2cc(C3CC3)cc(C(C)(C)C)c2)c2ccc(C(=O)O)c(O)c2)S(=O)(=O)c2c(F)c(F)c(F)c(F)c2F)cc1` [Compound 1026, 4-(N-(3-(tert-butyl)-5-cyclopropylbenzyl)-2-(N-(4-methoxybenzyl)-(2,3,4,5,6-pentafluoro-phenyl)sulfonamido)acetamido)-2-hydroxybenzoic acid] showed an IC50 of 3.16 to 100 µM.

Molecule `COc1ccc(CN(CC(=O)N(Cc2cc(C3CC3)cc(C(C)(C)C)c2)c2ccc(C(=O)O)c(O)c2)S(=O)(=O)c2c(F)c(F)c(F)c(F)c2F)cc1F` [Compound 1027, 4-(N-(3-(tert-butyl)-5-cyclopropylbenzyl)-2-(N-(3-fluoro-4-methoxybenzyl)-(2,3,4,5,6-pentafluoro-phenyl)sulfonamido)acetamido)-2-hydroxybenzoic acid] has an IC50 of 3.16 to 100 µM.

`COc1cc(CN(CC(=O)N(Cc2cc(C3CC3)cc(C(C)(C)C)c2)c2ccc(C(=O)O)c(O)c2)S(=O)(=O)c2c(F)c(F)c(F)c(F)c2F)ccc1F` [Compound 1028, 4-(N-(3-(tert-butyl)-5-cyclopropylbenzyl)-2-(N-(4-fluoro-3-methoxybenzyl)-(2,3,4,5,6-pentafluoro-phenyl)sulfonamido)acetamido)-2-hydroxybenzoic acid] showed an IC50 of 1 to 3.16 µM.

`CC(C)(C)c1cc(CN(C(=O)CN(Cc2ccc(Cl)cc2)S(=O)(=O)c2c(F)c(F)c(F)c(F)c2F)c2ccc(O)c(O)c2)cc(C2CC2)c1` [Compound 1029, N-(3-(tert-butyl)-5-cyclopropylbenzyl)-2-(N-(4-chlorobenzyl)-(2,3,4,5,6-pentafluorophenyl)sulfonamido)-N-(3,4-dihydroxyphenyl) acetamide] gave an IC50 of 3.16 to 100 µM.

`CC(C)(C)c1cc(CN(C(=O)CN(Cc2ccc(Cl)cc2)S(=O)(=O)c2c(F)c(F)c(F)c(F)c2F)c2cc(O)cc(O)c2)cc(C2CC2)c1` [Compound 1030, N-(3-(tert-butyl)-5-cyclopropylbenzyl)-2-(N-(4-chlorobenzyl)-(2,3,4,5,6-pentafluorophenyl)sulfonamido)-N-(3,5-dihydroxyphenyl) acetamide] showed an IC50 of 3.16 to 100 µM.

Work on `CC(C)(C)c1cc(CN(C(=O)CN(Cc2ccc(Cl)cc2)S(=O)(=O)c2c(F)c(F)c(F)c(F)c2F)c2ccc(C(=O)NO)cc2)cc(C2CC2)c1` [Compound 1032, 4-(N-(3-(tert-butyl)-5-cyclopropylbenzyl)-2-(N-(4-chlorobenzyl)-(2,3,4,5,6-pentafluorophenyl)sulfon-amido)acetamido)-N-hydroxybenzamide] yielded an IC50 of 3.16 to 100 µM.

`CC(C)(C)c1cc(CN(C(=O)CN(Cc2cccc(O)c2)S(=O)(=O)c2c(F)c(F)c(F)c(F)c2F)c2ccc(C(=O)O)c(O)c2)cc(C2CC2)c1` [Compound 1035, 4-(N-(3-(tert-butyl)-5-cyclopropylbenzyl)-2-(N-(3-hydroxybenzyl)-(2,3,4,5,6-pentafluoro-phenyl)sulfonamido)acetamido)-2-hydroxybenzoic acid] gave an IC50 of 3.16 to 100 µM.

With `CC(C)(C)c1cc(CN(C(=O)CN(Cc2ccccc2O)S(=O)(=O)c2c(F)c(F)c(F)c(F)c2F)c2ccc(C(=O)O)c(O)c2)cc(C2CC2)c1` [Compound 1036, 4-(N-(3-(tert-butyl)-5-cyclopropylbenzyl)-2-(N-(2-hydroxybenzyl)-(2,3,4,5,6-pentafluoro-phenyl)sulfonamido)acetamido)-2-hydroxybenzoic acid] the IC50 was 1 to 3.16 µM.

`COc1cccc(CN(CC(=O)N(Cc2cc(C3CC3)cc(C(C)(C)C)c2)c2ccc(C(=O)O)c(O)c2)S(=O)(=O)c2c(F)c(F)c(F)c(F)c2F)c1` [Compound 1038, 4-(N-(3-(tert-butyl)-5-cyclopropylbenzyl)-2-(N-(3-methoxybenzyl)-(2,3,4,5,6-pentafluoro-phenyl)sulfonamido)acetamido)-2-hydroxybenzoic acid] showed an IC50 of 3.16 to 100 µM.

With `COC(=O)C(C)(C)c1ccc(N(Cc2cc(C3CC3)cc(C(C)(C)C)c2)C(=O)CN(Cc2ccc(Cl)cc2)S(=O)(=O)c2c(F)c(F)c(F)c(F)c2F)cc1` [Compound 1042, methyl 2-(4-(N-(3-(tert-butyl)-5-cyclopropylbenzyl)-2-(N-(4-chlorobenzyl)-(2,3,4,5,6-pentafluorophenyl)sulfon-amido)acetamido)phenyl)-2-methylpropanoate] the IC50 was 3.16 to 100 µM.

With `COC(=O)c1ccc(N(Cc2cc(C3CC3)cc(C(C)(C)C)c2)C(=O)CN(Cc2ccc(Cl)cc2)S(=O)(=O)c2c(F)c(F)c(F)c(F)c2F)cc1O` [Compound 1051, methyl 4-(N-(3-(tert-butyl)-5-cyclopropylbenzyl)-2-(N-(4-chlorobenzyl)-(2,3,4,5,6-pentafluorophenyl)sulfon-amido)acetamido)-2-hydroxybenzoate] the IC50 was 3.16 to 100 µM.

With `CC(C)(C)c1cc(CN(C(=O)CN(Cc2ccccc2F)S(=O)(=O)c2c(F)c(F)c(F)c(F)c2F)c2ccc(C(=O)O)cc2NS(C)(=O)=O)cc(C2CC2)c1` [Compound 1059, 4-(N-(3-(tert-butyl)-5-cyclopropylbenzyl)-2-(N-(2-fluorobenzyl)-(2,3,4,5,6-pentafluoro-phenyl)sulfonamido)acetamido)-3-(methylsulfonamido) benzoic acid] the IC50 was 3.16 to 100 µM.

Work on `CC(C)Cc1cc(CN(C(=O)CN(Cc2ccccc2F)S(=O)(=O)c2c(F)c(F)c(F)c(F)c2F)c2ccc(C(=O)O)c(O)c2)cc(C2CC2)c1` [Compound 1067, 4-(N-(3-cyclopropyl-5-isobutylbenzyl)-2-(N-(2-fluorobenzyl)-(2,3,4,5,6-pentafluoro-phenyl)sulfonamido)acetamido)-2-hydroxybenzoic acid] yielded an IC50 of 3.16 to 100 µM.

Work on `CN(C)c1cc(C(=O)O)cc(F)c1N(Cc1cc(C2CC2)cc(C(C)(C)C)c1)C(=O)CN(Cc1ccccc1F)S(=O)(=O)c1c(F)c(F)c(F)c(F)c1F` [Compound 1069, 4-(N-(3-(tert-butyl)-5-cyclopropylbenzyl)-2-(N-(2-fluorobenzyl)-(2,3,4,5,6-pentafluoro-phenyl)sulfonamido)acetamido)-3-(dimethylamino)-5-fluorobenzoic acid] yielded an IC50 of 0.316 to 1 µM.

Molecule `CC(C)(C)c1cc(CN(C(=O)CN(Cc2ccccc2F)S(=O)(=O)c2c(F)c(F)c(F)c(F)c2F)c2ccc(C(=O)O)cc2NCCCCl)cc(C2CC2)c1` [Compound 1074, 4-(N-(3-(tert-butyl)-5-cyclopropylbenzyl)-2-(N-(2-fluorobenzyl)-(2,3,4,5,6-pentafluoro-phenyl)sulfonamido)acetamido)-3-((3-chloropropyl)amino) benzoic acid] has an IC50 of 1 to 3.16 µM.

In the case of `COc1cc(C(=O)O)ccc1N(Cc1cc(C2CC2)cc(C(C)(C)C)c1)C(=O)CN(Cc1ccc(F)nc1Cl)S(=O)(=O)c1c(F)c(F)c(F)c(F)c1F` [Compound 1096, 4-(N-(3-(tert-butyl)-5-cyclopropylbenzyl)-2-(N-((2-chloro-6-fluoropyridin-3-yl)methyl)-(2,3,4,5,6-pentafluorophenyl)sulfon-amido)acetamido)-3-methoxybenzoic acid], the IC50 is reported as 1e-05 to 0.316 µM.
